In patent US9408925B2, “Hyperpolarized lactate contrast agent for determination of LDH activity” (GE Healthcare Limited, priority 2010, dated 2016):

Columns and labels:
[1] = 13C T1 and T2 relaxation of non-polarized lactate samples (10 mM) at 9.4 T; type: physicochemical
Method: For FIG. 3, the samples contained 10 mM of either L-[1-^13C1, 2-^2H1] lactate or L-[1-^13C1] lactate (non-polarized). The T1 of the deuterated lactate was 55.8+/−2.2 s (n=1) and the T2 1.33+/−0.10 s (n=4) and the T1 of the C2 protonated lactate was 46.9+/−4.0 s (n=1) and the T2 1.49+/−0.13 s (n=2) (at 9.4 T). Heteronuclear ^13C/^1H double echo spectra were acquired using a 10 μs 90° ^13C pulse, a 5 ms adiabatic 180° ^13C pulse (bandwidth ˜2 kHz) and a 10 ms adiabatic ^1H pulse (bandwidth ˜1 kHz), which was centered on either the C2 or C3 lactate proton resonances (FIG. 2B). The TR was 20 s. Initial dummy scans produced a steady state z magnetization. The spectral bandwidth was 8 kHz and data were collected into 2048 complex points. Phase and amplitude corrected peak integrals for the lactate ^13C resonance were measured. The echo time is equivalent to 2τ.

[2] = T1 estimated from series of heteronuclear 13C/1H double echo spectra of hyperpolarized equimolar lactate mixture; type: physicochemical; conditions: 10 mM, multiple double echo spectra (FIG. 6)
Method: L-[1-^13C1] lactate was hyperpolarized using the DMSO preparation described in (Chen, A. P., et al. Feasibility of using hyperpolarized [1-C-13] lactate as a substrate for in vivo metabolic C-13 MRSI studies. Magnetic Resonance Imaging 26, 721-726 (2008)) with added Gd^3+. Briefly, 70 mg of a ˜50% w/w sodium L-[1-^13C1] lactate solution (0.31 mmol) (Sigma Aldrich, Gillingham, UK) is added to 27 mg DMSO (0.36 mmol) (Sigma Aldrich, Gillingham, UK), 2 mg OX 63 radical (1.4 μmol)(GE Healthcare) and 2.7 mg of a 50 mmol/L solution of Dotarem Gd^3+ chelate (Guerbet, Roissy, France). For in vitro experiments, one third of the resulting solution is polarised to the maximum at the optimal microwave frequency. Once the polarisation is at a maximum, the dissolution is performed with 6 mL of a 40 mmol/L Tris based buffer (pH=7.6) with added 100 mg/L EDTA. The final concentration of hyperpolarised L-[1-^13C1] lactate is then approximately 17 mmol/L. Acquisition of hetero-nuclear ^13C/^1H double echo spectra (TE=300 ms), with and without a 180° ^1H pulse, gave the spectra shown in FIG. 4.
An equimolar mixture of L-[1-^13C1] lactate and L-[1-^13C1, 2-^2H1] lactate was prepared and polarized to ˜26+/−0.5% (n=2). The final lactate concentration in the NMR tube was 10 mM.
Spectra were acquired with and without the 180° ^1H pulse. […]

T1 [1]	T2 [1]	estimated T1 [2]	Compound
55.8 ± 2.2 s	1.33 ± 0.10 s	27 s	[2H][C@@](C)(O)[13C](=O)O [L-[1-^13C1,2-^2H1] lactate, L-[1-^13C, 2-^2H] Lactate]
46.9 ± 4.0 s	1.49 ± 0.13 s	25 s	C[C@H](O)[13C](=O)[O-].[Na+] [L-[1-^13C1] lactate, Sodium L-[1-^13C1] lactate]
